From patent US20140241990A1, “METHODS OF USING ADENOSINE A1 RECEPTOR ACTIVATION FOR TREATING DEPRESSION” (TUFTS UNIVERSITY, priority 2011, published 2014)
“Also recorded” adds a separate entry of the source.

Key:
C57Bl/6J mice [1] = test: Forced swim test (FST); assay type: in vivo, mouse; settings: for duration of reduced immobility in forced swim test after onset of administration: cohorts tested 12, 36, 84 and 108 hours after first treatment
Description: The forced swim test is typically performed in a quiet experimental room as described in previous reports (Porsolt, R. et al., Arch. Int. Pharmacodyn. Ther., 229:327-336, 1977). For a typical test, animals are placed, for example, into a plexiglass cylinder (25 cm height, 25 cm diameter) containing 20 cm height of water at 23-25 C for 10 min. The animals typically display very fast swimming initially, lasting 1-2 min, followed by increasing immobility. Immobile time is measured during the last 4 min of the total period for statistical analysis. The animals are videotaped and movements are digitized from above. Immobility can be automatically scored, for example, using Ethovision (Noldus Information Technology Inc., Leesburg, U.S.A.).
The forced swim test (FST) was performed in a quiet experimental room. Animals where placed into a Plexiglass cylinder (25 cm height, 25 cm diameter) containing 20 cm height of water at 23-25° C. for 10 min. […] Immobile time was measured during the last 4 min of the total period for statistical analysis. The animals were videotaped and movements were digitized from above. Immobility was automatically scored using Ethovision (Noldus Information Technology Inc., Leesburg, U.S.A.). Results from tracking analysis were analyzed using ANOVA to compare means.

C57Bl/6J mice [2] = test: Tail suspension test (TST); assay type: in vivo, mouse; settings: CPT 4 mM i.c.v.
Description: Results from tracking analysis were analyzed using ANOVA to compare means.

mice [3] = test: Open field test (locomotor activity); assay type: in vivo, mouse; settings: wildtype mice treated i.c.v.
Description: The open field test was performed in accordance with the […] resource phenotyping protocol (Brown, S. et al., Nat. Genet., 37:1155, 2005). Open field behavior of mice was videorecorded from above, and assessed using Ethovision. Results from tracking analysis were analyzed using ANOVA to compare means.

A1R = target: T1, A1R (Mus musculus, UniProt Q60612); test: fEPSP enhancement at Schaeffer collateral synapse of hippocampal area CA1 in acute slices (adenosine tone); assay type: cell-based; settings: CPT 200 nM
T1 construct: from tissue; host or cells: acute mouse hippocampal slices (C57Bl/6J background; wild type and dnSNARE mice)
T1 sequence (Q60612 1-326): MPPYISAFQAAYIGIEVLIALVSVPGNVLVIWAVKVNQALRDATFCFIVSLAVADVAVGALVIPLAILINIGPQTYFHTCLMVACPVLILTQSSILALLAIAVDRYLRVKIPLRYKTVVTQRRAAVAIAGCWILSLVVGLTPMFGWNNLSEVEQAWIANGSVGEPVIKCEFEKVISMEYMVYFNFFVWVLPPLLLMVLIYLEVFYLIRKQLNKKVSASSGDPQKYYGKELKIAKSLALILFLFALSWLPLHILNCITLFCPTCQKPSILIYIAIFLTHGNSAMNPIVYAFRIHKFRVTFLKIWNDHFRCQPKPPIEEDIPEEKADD
Description: Mice were briefly anaesthetized with isofluorane and then decapitated, and slices were prepared (Manzoni, O. et al., Science, 265:2098-101, 1994). The brain was rapidly extracted in cold cutting solution (124 mM NaCl, 26 mM NaHCO3, 1 mM NaHPO4, 10 mM Glucose, 1 mM sodium pyruvate, 0.6 mM ascorbate, 2.9 mM KCl, 1 mM CaCl2, 2 mM MgCl2) bubbled continuously with a 95% O2 5% CO2 gas mixture. Slices 310 μm thick were cut using a Leica VT 1000S Vibratome. Isolated hippocampal slices were transferred to a bath containing continuously oxygenated cutting solution and incubated at 30 C for a 1.5 hour recovery period. Extracellular recordings were conducted in artificial cerebrospinal fluid (aCSF, 124 mM NaCl, 26 mM NaHCO3, 1 mM NaHPO4, 10 mM Glucose, 1 mM sodium pyruvate, 2.9 mM KCl, 2 mM CaCl2, 1 mM MgCl2) continuously superfused at 1.2 mL/minute and maintained at 32.8 C. Extracellular stimulation were delivered using a 125 μm concentric Pt—Ir electrode in unipolar mode with a pulse width of 0.1 ms.
A relative measure of the extracellular adenosine level can be obtained by determining the proportional enhancement of synaptic transmission in response to the application of the A1R antagonist 8-cyclopentyltheophylline (CPT; 200 nM) an approach that has been validated using electrochemical biosensors (Schmitt, L. et al., J. Neurosci., 32:4417-25, 2012).
The physiological mechanisms underlying the effects of sleep deprivation was investigated by asking whether sleep deprivation leads to an elevation of extracellular adenosine. A relative measure of the extracellular adenosine level can be obtained by determining the proportional enhancement of synaptic transmission in response to the application of the A1R antagonist 8-cyclopentyltheophylline (CPT; 200 nM). Independent measurements of extracellular adenosine using electrochemical biosensors have validated this approach. Field excitatory postsynaptic potentials (fEPSP) were measured at the Schaeffer collateral synapse of hippocampal area CA1 before and following application of CPT.

mice [4] = test: Sucrose consumption test (anhedonia); assay type: in vivo, mouse; settings: i.c.v. CCPA, three bolus injections at ZT=0, 3 and 6; vehicle baseline 30.55±3.60 g/kg; p=0.008
Description: Sucrose consumption experiments can be conducted known to one of skill in the art. For a typical test, mice are gradually acclimatized to increasing durations of water deprivation (0, 4, 8, 12, and 16 hours) and i.c.v. infusion of saline over the course of five days to minimize the stressfulness of the testing. On the sixth day, instead of receiving water at the end of the deprivation period, mice are given a 1% v/w solution of sucrose. This is repeated for three days (days 6-9) to establish baseline sucrose consumption levels. During the deprivation period preceding day 10, mice are given i.c.v. infusions of the identified test compound, followed by the presentation of sucrose as during baseline consumption testing. The average baseline (saline infusion) sucrose consumption is then compared to the average sucrose consumption following test compound infusion. Results are analyzed using a Student's t-test to compare means.
Sucrose consumption was conducted (Papp, M. et al., Psychopharmacology (Berl.), 104:255-9, 1991). After the acclimatization and habituation period mice were given access to sucrose for three days (days 6-9) to establish baseline sucrose consumption levels. Mice were then given i.c.v. infusions of CCPA administered as a series of three bolus injections at ZT=0, 3 and 6, followed by the presentation of sucrose (day 10). […]

mice [5] = test: Rotorod test; assay type: in vivo, mouse; settings: CCPA versus vehicle
Source text: The rotorod used a rotating cylinder that was 4 cm in diameter, fixed 35 cm above the ground and enclosed by transparent Plexiglas. The rotorod cylinder was covered in textured rubber coating, which facilitates traction. A small electric motor provided power to turn the rotorod via a rubber belt. The rotorod was set to rotate once every 5 s.

mice [6] = test: EEG/EMG recording, vigilance state scoring and power spectra; assay type: in vivo, mouse
Source text: Mice were implanted with EEG and EMG electrodes under ketamine/xylazine anesthesia. After 5-7 days of post-operative recovery, lightweight recording cables were connected to the head implants and mice were placed in cylindrical polypropylene containers containing nest material, water and food ad libitum. Mice were acclimated to the sleep chamber for 5-7 days (12:12 light-dark (LD) cycle; lights on at 8 AM). EEGs and EMGs were then collected on a Pinnacle Technologies system and digitized at 1000 Hz. Following acclimation, baseline 24 h recordings were made.
NonREM sleep (“NREM” sleep), REM sleep and wake were determined by an experimenter blind to experimental condition. On the baseline day, the amount of each state (expressed as a percentage of total recording time) and the duration of individual sleep and wake episodes were computed. Transitions between NREM sleep and REM sleep were also measured during the light phase. To investigate sleep the beneficial effects of sleep deprivation mice, mice were sleep deprived (SD) from 8 a.m. to 8 p.m. at the beginning of the major sleep period (light phase) using a Pinnacle sleep deprivation chamber. All EEG data were analyzed by normalizing each data point to the average power of the EEG from 0.5 to 40 Hz (FIG. 4), and by normalizing each data point (+12 hr, +36 hr, +84 hr, +108 hr) to the corresponding vehicle data points (FIG. 8).
To investigate whether A1R activation alone is capable of altering the sleep architecture and mimicking the effects of sleep deprivation, the adenosine receptor agonist 2-chloro-N(6)-cyclopentyladenosine (CCPA; […]) was administered via i.c.v. cannulae. Following recovery and one week of habituation to the headstage, EEG activity was recorded from mice with i.c.v. saline vehicle infusion for two days to establish baseline EEG activity patterns. The EEG changes following injection of the A1R agonist CCPA were monitored. […] The normalized power from 0.5 to 4.0 Hz was also analyzed, comparing saline baseline to CCPA infusion (FIG. 4D).
Adenosine agonists cause a sustained enhancement of delta power during wakefulness. As a final step in testing the antidepressive actions of adenosine activation of A1Rs was determined to be sufficient to mimic the effects of sleep deprivation on depressive-like behaviors. […] The adenosine receptor agonist 2-chloro-N(6)-cyclopentyladenosine (CCPA; 500 nM) was delivered i.c.v. while performing EEG/EMG recordings.

[7] = CCPA 500 nm i.c.v., percentage of recording time

With `CN(C)CCCN1c2ccccc2CCc2ccccc21` [imipramine] the “immobility in behavioral despair tasks” value (C57Bl/6J mice [1]; 14 days of treatment) was “reduces immobility” and the “time spent immobile, forced swim test” value (C57Bl/6J mice [1]; wildtype littermates, imipramine 20 mg/kg, chronic 14 days) was 73.00 ± 9.53 s.

For `Cn1c(=O)c2[nH]c(C3CCCC3)nc2n(C)c1=O` [CPT, 8-cyclopentyltheophylline], the “basal immobility, tail suspension test” value (C57Bl/6J mice [2]; no sleep deprivation) was 187.60 ± 11.46 s, the “immobility after sleep deprivation, tail suspension test” value (C57Bl/6J mice [2]; sleep deprivation) was 204.00 ± 3.58 s and the “locomotor activity / total distance traveled in open field” value (mice [3]) was “do not differ”. The “basal immobility, forced swim test” value (C57Bl/6J mice [1]; CPT 4 mM i.c.v., no sleep deprivation) was 176.43 ± 21.77 s, the “immobility after sleep deprivation, forced swim test” value (C57Bl/6J mice [1]; CPT 4 mM i.c.v., sleep deprivation) was 167.70 ± 18.89 s and the “increase in fEPSP (adenosine tone)” value (A1R; WT undisturbed mice, ZT=0) was 481.70±85.04%. For the same compound, the “proportional enhancement of fEPSP (adenosine tone)” value (A1R; WT, ZT=12 (end of light phase)) was 128.15±28.91%, the “adenosine tone (fEPSP enhancement)” value (A1R; after 72 h of sleep deprivation, ZT=0) was 104.62±18.31% and the “adenosine tone (fEPSP enhancement)” value (A1R; dnSNARE, ZT=0) was 61.98±16.80%. For the same compound, the “adenosine tone (fEPSP enhancement)” value (A1R; dnSNARE, ZT=12) was 27.91±5.10% and the “adenosine tone (fEPSP enhancement)” value (A1R; transient total sleep deprivation ZT 0 to ZT 12) was 367.61±24.95%.

In the case of `OCC1OC(n2cnc3c(NC4CCCC4)nc(Cl)nc32)C(O)C1O` (centres unmarked) [CCPA, 2-(2-chloro-6-(cyclopentylamino)-9H-purin-9-yl)-5-(hydroxymethyl)tetrahydrofuran-3,4-diol], the sucrose consumption (mice [4]) is reported as 51.45 ± 6.35 g/kg, the “latency to fall / locomotor activity in rotorod test” value (mice [5]) is reported as “without accompanying changes in locomotor activity; also recorded: do not differ” and the “percent wake at 12 h after administration” value (mice [6]; 12 h (ZT 12) after CCPA) is reported as “significantly greater percentage of time awake; also recorded: increased percent wake”. For the same compound, the “increased percent wake at 36 h after administration” value (mice [6]; 36 h following CCPA) was “no longer present”, the “EEG power spectra compared to baseline saline” value (mice [6]; CCPA 500 nm i.c.v.) was “dramatic increase in the power spectra” and the “duration of REM sleep” value (mice [6]; [7]) was 18.13±1.30%. For the same compound, the “duration of non-REM sleep” value (mice [6]; [7]) was 48.75±1.85%, the duration of wake (mice [6]; [7]) was 31.38±1.93% and the “delta power (0.5-4 Hz) during wakefulness after mice awoke” value (mice [6]; CCPA i.c.v. ZT=0, 3 and 6, p<0.001) was “prominent increase in delta power”. The “percentage of time awake during administration” value (mice [6]; CCPA i.c.v. infusion, 500 nM) was “transient decrease; also recorded: decreased”, the “acute effect on delta power” value (mice [6]; acute, during CCPA action) was “reduce delta power” and the “time after last administration by which effects on sleep had reversed” value (mice [6]; reversed by ZT=11, last administration at ZT=6) was no more than 5 h. For the same compound, the “time asleep ZT 1 through 10 compared to vehicle” value (mice [6]; three consecutive CCPA infusions (ZT=0, 3, 6), 500 nM i.c.v., p<0.002) was “significantly greater time”, the “locomotor activity / total distance traveled in open field” value (mice [3]) was “without accompanying changes in locomotor activity; also recorded: do not differ” and the “beneficial effects in forced swim test 3 and 5 days after infusion” value (C57Bl/6J mice [1]; 3 and 5 days after infusion) was “no longer observed”. The “effect on immobile time, forced swim test” value (C57Bl/6J mice [1]; CCPA i.c.v. (ZT=0, 3 and 6), tested at ZT=12) was “decreased immobile time; also recorded: reduction in immobile time; also recorded: significantly reduces immobility”, the “duration of reduced immobility in forced swim test after onset of administration” value (C57Bl/6J mice [1]) was 36 h and the “duration of reduced immobility in forced swim test after onset of administration” value (C57Bl/6J mice [1]; listed as COPA) was “up to 36 hours”. For the same compound, the “duration of beneficial effects in forced swim test” value (C57Bl/6J mice [1]; three i.c.v. injections spaced evenly across a 12 hour period, cohorts at 24 hours, +1, +3, +5 days) was 24 h.
